Columns and labels:
[1] = test system: early life stage zebrafish (Danio rerio) embryos; assay: Developmental toxicity morphology screen, sealed rotating vial exposure; type: in vivo; set-up: bmd, MO24 / bmd, MORT / bmd, ANY_ / bmd, AXIS / bmd, CRAN / bmd, EDEM / bmd, LTRK / bmd, MUSC / bmdL, ANY_ / bmdU, ANY_ / bmdL, AXIS / bmdU, AXIS / bmdL, CRAN / bmdU, CRAN / bmdL, EDEM / bmdU, EDEM / bmdL, LTRK / bmdU, LTRK / bmdL, MO24 / bmdU, MO24 / bmdL, MORT / bmdU, MORT: unit not given here
Experimental: (§1) When embryos were 6 hpf they were bleached in groups of 1000 or less to limit bacterial growth in sealed vials. Embryos were placed in a strainer for transfer between solutions in 500 mL containers. […] Pools of eight embryos were placed into 2 mL clear glass screw cap exposure vials with polyvinyl-faced pulp liner (Avantar Radnor, PA, United States) using a glass Pasteur pipette. Excess EM was removed, and 2 mL of fresh EM was immediately added. A total of 10 uL of 200x working stock (in DMSO) was added to each vial, then immediately capped and inverted three times to mix. […] Vials were loaded into a custom 3D printed vial holder for slow end-over-end rotation in a dark 28 °C incubator overnight. […] At 24 hpf, embryos were removed from exposure vials and singulated into 96-well plates loaded with 100 μL chemical-free EM. Each exposure vial group was maintained in plate columns. After loading into 96-well plates, embryos were assessed for 24-hour mortality. For the remainder of the exposure, plates were kept stationary at 28 °C in the dark, until 120 hpf when morphology screening and the larval photo motor response (LPR) assay were conducted, section 2.3.2 and section 2.3.3, respectively.
Each treatment group was replicated over four vials, resulting in 32 embryos per treatment, split over two replicate 96-well plates per chemical. […] All reported concentrations were nominal water concentrations and are included in SI-T4.
At 24 hpf embryos were assessed for mortality (MO24). At 120 hpf embryos were assessed for abnormality in […] morphological endpoints: mortality (MORT), edemas (EDEM), bent axis (AXIS), touch response (TCHR), craniofacial (CRAN), muscular/cardiovascular (MUSC), lower trunk (LRTK), brain (BRAN), skin (SKIN), and notochord malformations (NC). Morphological assessments were made by a team of three to four individuals. The team was blinded to the identity, plate layout, and concentrations of the chemicals, thereby minimizing bias in morphological screening assessment. To ensure the assessments were consistent, concentration–response reproducibility of a parathion ethyl quality control plate was performed along with each experimental exposure set up. Details of all measured endpoints can be found at Developmental toxicity zebrafish phenotype atlas. […] Each endpoint was scored as a binary presence/absence and scores were compiled into an “Any effect” endpoint, the presence of abnormality in any individual endpoint.
The Any effect percent was used to calculate the BMC50, 50 % change relative to the background for each endpoint and chemical. All values were reported as the nominal exposure concentration.

[2] = test system: zebrafish larvae, 120 hpf; assay: Larval photomotor response (LPR) assay after vial exposure; type: in vivo, Danio rerio; conditions: for fold_change: LPR
Experimental: as §1
Each treatment group was replicated over four vials, resulting in 32 embryos per treatment, split over two replicate 96-well plates per chemical. […] Vial groups of plated larvae were tracked to assess the impact of the vial on the results. All reported concentrations were nominal water concentrations and are included in SI-T4.
The LPR assay was conducted at 120 hpf. […] Larval movement was tracked throughout minutes 6–24. Animals dead or morphologically abnormal were excluded from the analysis, and if more than 30 % of the wells in a treatment group were excluded, the treatment was removed.
Movement values were binned into 6s intervals, log normalized and used to calculate area under the curve (AUC). AUC values from the first cycle after calibration were used to calculate the LEL for each period (light and dark).

[3] = test system: zebrafish embryos, gene expression at 48 hpf; assay: Targeted transcriptomics (TempO-Seq S1500+ zebrafish panel), differential expression; type: in vivo, Danio rerio; conditions: 20 μM, result in words
Experimental: Targeted transcriptomics were performed using the Biospyder™ TempO-Seq™ 96-well plate platform. This platform used detector oligos for a gene set of 3112 probes selected through data driven approaches and expert curation ([Balik-Meisner et al., 2019]). The targeted transcriptomics approach was selected to maximize the number of chemicals that could be included in the analysis while managing cost and data analysis requirements. Targeted transcriptomics were limited to 96 samples, three chemicals without morphological effects were excluded from the analysis to ensure n = 4 per chemical and n = 6 controls, excluded chemicals are indicated in SI-T3.
A single exposure concentration of 20 μM was chosen as the maximum possible concentration to elicit a biological response that also ensured enough viable animals for RNA collection for every chemical. The same concentration per chemical was chosen as opposed to a phenotypically anchored concentration due to variability in 48 hpf survival across chemicals at the same 120 hpf percent effect and to allow for a direct comparison of chemical potency and transcriptomic response. 48 hpf was chosen to ensure the measurement of transcriptomic responses prior to the emergence of observable phenotypic effects. This timepoint has been used extensively and enhanced the ability to compare our results across datasets. Exposure was conducted over two days, chemicals were split into day groups by numerical order of randomly generated internal labels, 11 chemicals and control each day, n = 48 embryos across six vials per treatment. Exposure was conducted as previously described in section 2.3. At 48 hpf embryos were collected for RNA extraction. Embryos from two exposure vials were kept for morphological effect assessments which were as expected based on screening results. From the remaining wells, six phenotypically normal embryos were collected and pooled in their vial groups into 1.5 mL Eppendorf tubes, placed on ice (~30 sec), excess medium was removed, placed back on ice (~30 sec), and 200 μL RNA shield was added. […] of n = 6 pooled embryos were collected from each treatment.
RNA was extracted from exposure groups on day one and day two. 100 μL of lysis buffer was added to each tube containing pooled embryo samples and 200 μL of RNA shield, the full contents of the tube were then transferred to the homogenization plate (2 mL deep 96-well plate pre-filled with 400 μL 1 mm zirconium beads and 500 μL of lysis buffer). The plate was homogenized for 1.5 min using the Mini-BeadBeater 96 (BioSpec Products, Bartlesville, OK, United States) and centrifuged for five min at 3000 rcf. 550 μL of the supernatant was distributed over two plates, each pre-filled with 275 μL of ethanol. RNA extraction was performed using the KingFisher Apex System (ThermoFisher Scientific, Waltham, MA, United States) and Quick-RNA Magbead kit (Zymo Research Corporation, Irvine, CA, Untied States). Briefly, this automated process uses Mag beads to collect RNA from the sample, after a series of washes and treatment with DNase the RNA is eluted in 50 μL of ultra-pure water. RNA quality was assessed using the 4150 TapeStation System (Agilent, Santa Clara, CA, United States). All samples used had RNA integrity number (RIN) scores >9.8. RNA concentration was determined using Quant-iT RNA Reagent and assay kit and Varioskan ALF multi-mode plate reader (ThermoFisher Scientific, Waltham, MA, United States) in duplicate, samples with high variability (coefficient of variance (CV) > 10) between reads were repeated in triplicate. The average of the quantification reads was used for RNA concentration normalization. […] All 94 samples were normalized using ultra-pure water to the lowest concentration sample − 14.9 ng/μL. […]

Cc1ccc(C)c2c(C)cccc12 [1,4,5-trimethylnaphthalene]
BMC50 MO24 (mortality at 24 hpf) ([1]; Fig. 2, nominal concentration): 27.7 µM
BMC50 MORT (mortality at 120 hpf) ([1]; Fig. 2, nominal concentration): 23.5 µM
BMC50 Any effect ([1]; Fig. 2 heatmap, nominal concentration, exposure 6-24 hpf in vials, summary of all endpoints): 19.7 µM
any effect BMD50 ([1]; SI-T5): 19.74 µM
bmd, MO24 ([1]; benchmark dose, endpoint MO24): 27.7283
bmd, MORT ([1]; benchmark dose, endpoint MORT): 23.5002
bmd, ANY_ ([1]; benchmark dose, morphology endpoint ANY_ (any effect)): 19.7402
LPR behavioral effect ([2]; 120 hpf, light/dark periods, result in words): hyperactivity during the light period
fold_change ([2]; period dark, round 1, conc 3.125): 0.1634
fold_change ([2]; period dark, round 1, conc 6.25): 0.08749
fold_change ([2]; period dark, round 1, conc 12.5): -0.2344
fold_change ([2]; period dark, round 2, conc 12.8): 0.03668
fold_change ([2]; period dark, round 2, conc 16): -0.1932
fold_change ([2]; period dark, round 2, conc 20): 0.4872
fold_change ([2]; period light, round 1, conc 3.125): -0.0344
fold_change ([2]; period light, round 1, conc 6.25): 0.04487
fold_change ([2]; period light, round 1, conc 12.5): 0.5316
fold_change ([2]; period light, round 2, conc 12.8): 0.4664
fold_change ([2]; period light, round 2, conc 16): -0.1141
fold_change ([2]; period light, round 2, conc 20): 1.443
nt5dc2 expression [3]: decreased expression
